Assay results: the supplement of paper PMC4954754
± gives the uncertainty stated by the source.

Assays:
Conditions in all cases: 18 h
HEK293T-Rex ERSE-FLuc [1] = assay: maximal ERSE-FLuc activation from dose-response fit, relative to thapsigargin (% of thapsigargin); higher = stronger activation
Procedure: (§1)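 Dose-response of hit compounds in HEK293T-Rex cells stably expressing ERSE-FLuc or XBP1-RLuc reporters, 18 hr treatment, 1536-well; luminescence normalised to 500 nM thapsigargin (100%) and DMSO (0%), fitted to give EC50 (M) and maximal activation; '>' marks EC50 above the top tested dose (~17 µM).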

HEK293T-Rex XBP1-RLuc [2] = assay: EC50 for XBP1-RLuc reporter activation
Procedure: as §1

HEK293T-Rex ERSE-FLuc [3] = assay: EC50 for ERSE-FLuc reporter activation
Procedure: as §1

HEK293T-Rex XBP1-RLuc [4] = assay: maximal XBP1-RLuc activation from dose-response fit, relative to thapsigargin (% of thapsigargin); higher = stronger activation
Procedure: as §1

Compound	maximal ERSE-FLuc activation (HEK293T-Rex ERSE-FLuc [1])	EC50 for XBP1-RLuc reporter activation (HEK293T-Rex XBP1-RLuc [2])	EC50 for ERSE-FLuc reporter activation (HEK293T-Rex ERSE-FLuc [3])	maximal XBP1-RLuc activation (HEK293T-Rex XBP1-RLuc [4])
COc1cccc(-c2cc(C(=O)Nc3cc(C)ccc3O)no2)c1	46.2 ± 7.9	> 16.9 µM	> 16.9 µM	19.1 ± 3.5
O=C(/C=C/c1ccccc1)Nc1ccc(Cl)cn1	22.1 ± 7	> 18.6 µM	> 18.6 µM	2.19 ± 0.65
O=C(N/N=C/c1ccc(O)c(O)c1)c1cccc(Cl)c1	69.2 ± 4.9	> 16.9 µM	13.6 µM	29.3 ± 2.4
CC(=O)c1cccc(Nc2nc(-c3ccc(O)c(O)c3)cs2)c1	87.3 ± 28	13.5 µM	9.07 µM	62.6 ± 15
Cc1ccc(O)c(NC(=O)c2cc(-c3cccnc3)on2)c1	94.4 ± 10	> 16.9 µM	10.8 µM	27.9 ± 4.9
CCOc1cccc(C(=O)Nc2ccc(Br)cn2)c1	23.3 ± 2.1	> 15.1 µM	> 15.1 µM	4.18 ± 0.09
C/C(=N\NC(=O)c1n[nH]c2c1CCCC2)c1ccc(Br)cc1	32.5 ± 9.9	> 16.9 µM	> 16.9 µM	8.77 ± 2
CN(C)/C=N/C1=C(C#N)C(c2ccc3c(c2)OCO3)c2ccc3ccccc3c2O1 (stereo unspecified)	21.8 ± 6.6	> 16.6 µM	> 16.6 µM	7.29 ± 3.2
CC(=O)N1CCc2c([nH]c3ccccc23)C12CCN(CCCOc1ccccc1)CC2	151 ± 7.6	2.11 µM	2.94 µM	176 ± 21
Oc1ccccc1/C=N\Nc1nc2ccccc2o1	12.4 ± 3.9	> 17.3 µM	> 17.3 µM	19.8 ± 1.3
CC(C)NC(=O)c1cc(-c2ccc(O)cc2)on1	1.46 ± 1	> 16.9 µM	> 16.9 µM	0.798 ± 0.58
O=C(N/N=C/c1ccc(O)c(O)c1)c1ccc(Br)cc1	51.2 ± 4.4	16.8 µM	16 µM	50.1 ± 4.6
O=C1N/C(=C/c2ccc(O)cc2)C(=O)N1Cc1ccc(Br)cc1	47.9 ± 1.7	4.02 µM	> 15.8 µM	70.6 ± 14
COCCNC(=O)c1cc(-c2cccs2)on1	54.1 ± 14	> 16.9 µM	15.5 µM	9.6 ± 3.2
CCCc1cc(C(=O)Nc2cc(C)ccc2O)no1	116 ± 9.5	> 16.9 µM	2.84 µM	30 ± 2.2
COc1ccc(-c2cc(C(=O)Nc3cc(C)ccc3O)on2)cc1OC	29.1 ± 5.3	> 16.9 µM	> 16.9 µM	9.55 ± 5.6
Cc1ccc(O)c(NC(=O)c2cc(-c3ccco3)on2)c1	167.3 ± 1.6	> 16.9 µM	4.85 µM	34.4 ± 4.2
O=C(N/N=C/c1cccc2ccccc12)c1ccc2c(c1)OCO2	25.3 ± 5.6	> 16.9 µM	> 16.9 µM	0.725 ± 0.6
CC(=O)Nc1ccc2nc(-c3ccc(OC(C)=O)cc3)sc2c1	15.7 ± 1.8	11.3 µM	> 16.9 µM	67 ± 2.2
Oc1ccc(-c2csc(-c3ccccc3)n2)cc1O	65.2 ± 8.8	11.3 µM	5.39 µM	65.9 ± 7.2
N#Cc1ccc(-c2cccs2)nc1SCc1ccccn1	28.6 ± 1.8	> 16.4 µM	> 16.4 µM	5.22 ± 2.9
O=C1N/C(=C/c2ccc(O)cc2)C(=O)N1c1ccccc1	110 ± 11	4.36 µM	3.42 µM	76 ± 3.7

Compound	maximal ERSE-FLuc activation (HEK293T-Rex ERSE-FLuc [1])	EC50 for XBP1-RLuc reporter activation (HEK293T-Rex XBP1-RLuc [2])	EC50 for ERSE-FLuc reporter activation (HEK293T-Rex ERSE-FLuc [3])	maximal XBP1-RLuc activation (HEK293T-Rex XBP1-RLuc [4])
Cc1ccc(O)c(NC(=O)c2cc(C3CC3)on2)c1	91.7 ± 12	> 16.9 µM	2.02 µM	23.7 ± 1.1
COc1cn(-c2ccc(F)cc2)nc1C(=O)Nc1ccccc1SC	80.8 ± 17	> 16.9 µM	6.64 µM	40.2 ± 0.22
Cc1nc(-c2coc3c(O)c(O)ccc3c2=O)cs1	35.2 ± 6.9	> 16.9 µM	> 16.9 µM	20.6 ± 1
COc1cccc(C(=O)Nc2sc3c(c2C#N)CC(C)CC3)c1 (stereo unspecified)	23.5 ± 8	> 16.6 µM	> 16.6 µM	2.09 ± 1.1
Cc1nn(-c2ccc(F)cc2)c2ncc(C(=O)NCc3ccco3)c(Cl)c12	63.1 ± 4.8	12.6 µM	15.3 µM	151 ± 6.8
Cc1nc(-c2ccc(C(=O)Nc3ccc(O)cc3)cc2)cs1	27.7 ± 1.8	12.9 µM	> 16.9 µM	65.5 ± 3.6
COc1ccc(/C=C(\C#N)c2nc3ccccc3n2C)cc1	32.1 ± 2	> 16.9 µM	> 16.9 µM	0.49 ± 1.4
CCCCNc1ncnc2c1cnn2-c1ccc(Cl)cc1	25.4 ± 3	> 19.5 µM	> 19.5 µM	2.05 ± 1.1
O=C1NC(=Nc2ccc(F)cc2)S/C1=C\c1ccc(O)c(O)c1	85.9 ± 7.7	12.4 µM	6.92 µM	55.3 ± 2.5
N#Cc1c(NC(=O)c2ccc(Br)cc2)sc2c1CCCC2	17.3 ± 2.2	> 12.7 µM	> 12.7 µM	1.87 ± 3.4
C=CCn1c(N2CCC(C(=O)NCCc3ccc(O)c(O)c3)CC2)nc2ccccc21	150 ± 16	7.94 µM	8.27 µM	97.8 ± 31
Nc1ccc2sc(-c3cc(Cl)c(N)c(Cl)c3)nc2c1	22 ± 6.1	> 16.9 µM	> 16.9 µM	14.9 ± 1.8
CCCCNC(=O)c1cc(-c2cccs2)on1	107 ± 7.8	> 16.9 µM	6.65 µM	10.3 ± 2.2
c1ccc2cc(-c3cnnc(N4CCOCC4)n3)ccc2c1	25.2 ± 10	> 16.9 µM	> 16.9 µM	4.15 ± 2.7
Cc1ccc(C(=O)Nc2ccccc2N)cc1	137 ± 15	> 14.7 µM	4.27 µM	42.2 ± 2.2
O=C(/C=C/c1ccccc1)Nc1ccc(Br)cn1	26.2 ± 3.8	> 13.7 µM	> 13.7 µM	4.36 ± 3.2
CC(=Nc1ccc(O)cc1)c1sc2ccccc2c1O	19.8 ± 4.8	> 19.6 µM	> 19.6 µM	31.2 ± 4.8
O=C(Nc1ccc(O)cc1)c1c(O)c2c([nH]c1=O)CCCC2	22.3 ± 2.9	> 16.1 µM	> 16.1 µM	28.5 ± 3.6
Cn1c(-c2cccc(Cl)c2)cnc1NC(=O)c1ccccc1	23.6 ± 2.5	> 16.9 µM	> 16.9 µM	8.33 ± 5.9
Cc1ccc(O)c(NC(=O)c2cc(-c3ccc(O)cc3)on2)c1	58.9 ± 2.1	> 16.9 µM	9.05 µM	30.8 ± 5.7
COc1ccc(NC(=O)/C(Cl)=C\c2ccccc2)cc1	22.2 ± 2.3	> 16.9 µM	> 16.9 µM	4.41 ± 5
Cc1ccccc1NC(=O)c1sc2nc(N)c(C#N)c(-c3ccc(C(C)C)cc3)c2c1N	169 ± 22	4.47 µM	4.01 µM	122 ± 17
